Measured values published in patent US5266589A, “Method of increasing the muscle/fat ratio in agricultural domestic animals” (Duphar International Research B.V., priority 1990, dated 1993).
“Also recorded” adds a separate entry of the source. Read-outs that look alike come from different tables or passages of the source.

What was measured:
right atrium = test: Heart activity: chronotropic effect on isolated right atria, in relation to Isoprenaline; assay type: cell-based, male Wistar rats; settings: for Emax: read-out: Chronotropic effect on the right atrium: i.a. (intrinsic activity); for EC50: read-out: Chronotropic effect on the right atrium: pEC50 (converted)
Procedure: The heart activity has been determined in heart tissue of rats. It is known that rats are just as suitable for the determination of the heart activity (chronotropy) as the agricultural domestic animals mentioned hereinbefore.
The substances are tested with respect to their chronotropic effect on isolated right atria under a pre-load with 0.5 g, in an organ bath which contains the above Krebs buffer solution and is kept at 37° C. Dose-response curves with Isoprenaline® are determined. The results are again expressed as pEC50 values and, in relation to Isoprenaline®, as intrinsic activities ("i.a.").

bovine adipocytes = test: Lipolytic activity on isolated bovine adipocytes (FFA production), in relation to Isoprenaline; assay type: cell-based; settings: for EC50 / Emax: Bos taurus, Adipocyte; for EC50: 1.5 h, read-out: Lipolytic activity: pEC50 (converted); for Emax: read-out: Lipolytic activity: i.a. (intrinsic activity)
Procedure: Pieces of adipose tissue of approximately 600×600 μm, isolated from bovine animals or sheep, are provided in a teflon container containing: 3 ml of Krebs-Henseleit buffer having a pH of 7.4, 1% w/v of demineralized bovine serum albumin (BSA), 0.33 mg/ml of collagenase and 200 nM of adenosine. […] After 1 hour the suspension is filtered through nylon gauze (100 μm) and washed 2 times with Krebs-Henseleit buffer at room temperature. The incubations are carried out in duplicate, each incubation mixture consisting of 50 μl of the filtered cell suspension, 100 μl of the compound to be tested, 2% w/v of BSA and 50 μg/ml of Na2 S2 O5 (antioxidant) in 2.85 ml of Krebs-Henseleit buffer. Incubation: 90 minutes at 37° C. while shaking and gassing with carbogen. After the incubation, extraction is carried out with 3 ml of 2-propanol/n-hexane/1N-H2 SO4 (40:20:1) mixture. In the organic layer the produced free fatty acids (FFA) are determined. This determination is carried out as follows: 150 μl of sample are diluted with 1 ml of chloroform and then mixed with copper reagent (10% Cu(NO3)2 /2M triethanolamine/2N acetic acid=10:9:1); 0.2% w/v of sodium diethyldithiocarbamate is added. The yellow color is measured in a colorimeter and is a measure of the FFA-production. […] The intrinsic activity is the maximally achievable activity, also measured again with respect to Isoprenaline®.

heart = settings: in the dosages required for the intended purpose; cited from earlier work
ovine adipocytes = test: Lipolytic activity on isolated ovine adipocytes (FFA production), in relation to Isoprenaline; assay type: cell-based, sheep
Source text: It is known, for example, from a contribution by R. G. Vernon in "New perspectives in Adipose Tissue; structure, function and development", page 76, edited by Cryer and Van, Butterworths 1984, London, that there exists a good relationship between the lipolytic activity on the one hand and the activity as a repartitioning agent on the other hand. This means that a high value for the lipolytic activity is predictable for the increase of the muscle/fat ratio and for improving the growth and the feed efficiency of agricultural domestic animals. The influence of the tested compounds on the lipolysis of adipocytes is described in example I hereinafter. Bovine and ovine adipocytes, i.e. adipocytes of representative examples of agricultural domestic animals, have been used in this example.
Pieces of adipose tissue of approximately 600×600 μm, isolated from bovine animals or sheep, are provided in a teflon container containing: 3 ml of Krebs-Henseleit buffer having a pH of 7.4, 1% w/v of demineralized bovine serum albumin (BSA), 0.33 mg/ml of collagenase and 200 nM of adenosine. The adipocytes are isolated by shaking the container at 37° C. under carbogen gassing (approximately 5% CO2 in 95% O2). After 1 hour the suspension is filtered through nylon gauze (100 μm) and washed 2 times with Krebs-Henseleit buffer at room temperature. The incubations are carried out in duplicate, each incubation mixture consisting of 50 μl of the filtered cell suspension, 100 μl of the compound to be tested, 2% w/v of BSA and 50 μg/ml of Na2 S2 O5 (antioxidant) in 2.85 ml of Krebs-Henseleit buffer. Incubation: 90 minutes at 37° C. while shaking and gassing with carbogen. […] In the organic layer the produced free fatty acids (FFA) are determined. […] The yellow color is measured in a colorimeter and is a measure of the FFA-production. […] In addition to the fond pEC50 values, the values for the intrinsic activity ("i.a.") have been recorded in Table A hereinafter. The intrinsic activity is the maximally achievable activity, also measured again with respect to Isoprenaline®.

swine adipose tissue = settings: Mersmann, cited from earlier work; for lipolytic activity, in words: pigs
heart rate = settings: pig, in vivo; cited from earlier work
[1] = compared with tested known substances / in the concentration required for the intended use

| Compound | Emax (right atrium; Rattus norvegicus) [%] | EC50 (right atrium; Rattus norvegicus) [nM] | EC50 (bovine adipocytes) [nM] | Emax (bovine adipocytes) [%] | side effects on the heart, in words (heart) | heart activity, in words (right atrium; [1]) | lipolytic activity, in words (swine adipose tissue) | further results |
| --- | --- | --- | --- | --- | --- | --- | --- | --- |
| CC(C)(C)NCC(O)c1cc(Cl)c(N)c(Cl)c1 (stereo not shown) [Clenbuterol] | 40 | 50.1 | 1580 | 30 | serious side effects because in the dosages required for the intended purpose an undesired influence on the heart is exerted | – | – | – |
| CC(CCc1ccc(O)cc1)NCC(O)c1ccc(O)cc1 (stereo not shown) [Ractopamine] | – | – | – | – | serious side effects because in the dosages required for the intended purpose an undesired influence on the heart is exerted | – | – | heart activity, in words (right atrium): considerable heart activity in the required concentration; Emax (right atrium; isolated rat right atria, in relation to Isoprenaline): 100%; EC50 (right atrium; isolated rat right atria, pre-load 0.5 g, Krebs buffer, 37° C.): 31.6 nM; EC50 (bovine adipocytes; bovine adipocytes, 90 minutes at 37° C., pEC50 = negative logarithm of concentration at 50% of maximum effect): 2510 nM; Emax (bovine adipocytes; bovine adipocytes, maximally achievable activity with respect to Isoprenaline): 60% |
| CC(C)(Cc1ccc(O)cc1)NCC(O)c1cc(O)cc(O)c1 (stereo not shown) [(1), 1-(3,5-dihydroxyphenyl)-2-[1,1-dimethyl-2-(4-hydroxyphenyl)ethylamino]ethanol] | 40 | 2510 | 3160 | 80 | – | considerably lower than that of the substances Ractopamine®, Fenoterol® and Clenbuterol®; also recorded: without a burdensome heart activity being experienced | low lipolytic activity | heart activity, in words (right atrium; compared with tested known substances / in the concentration required for the intended use, listed as 1-(3,5-dihydroxyphenyl)-2-[1,1-dimethyl-2-(4-hydroxyphenyl)-ethylamino]ethanol): low heart effect; lipolytic activity on bovine adipocytes, in words (bovine adipocytes; bovine adipocytes): remarkably high lipolytic activity; intrinsic lipolytic activity, comparison in words (bovine adipocytes; versus Ractopamine and Clenbuterol): significantly higher than that of the phenylalkylamino derivatives Ractopamine® and Clenbuterol®; lipolytic activity on ovine adipocytes, in words (ovine adipocytes): remarkably high lipolytic activity; EC50 (ovine adipocytes; Ovis aries, Adipocyte, 1.5 h, 90 minutes at 37° C., pEC50 = negative logarithm of concentration at 50% of maximum effect): 501 nM; Emax (ovine adipocytes; Ovis aries, Adipocyte, maximally achievable activity with respect to Isoprenaline, read-out: Lipolytic activity: i.a. (intrinsic activity)): 140%; relative ED50 (lipolysis) (swine adipose tissue; swine adipose tissue, relative to Fenoterol): approximately ten times as high as that of Fenoterol® |
| CC(Cc1ccc(O)cc1)NCC(O)c1cc(O)cc(O)c1 (stereo not shown) [Fenoterol] | 100 | 251 | 794 | 80 | – | considerable heart activity in the concentration required for the intended purpose | – | – |
| CC(C)(C)NCC(O)c1cc(O)cc(O)c1 (stereo not shown) [terbutaline] | – | – | – | – | – | – | less active in lipolysis | increasing heart rate, in words (heart rate): more active in increasing heart rate |
